The values below come from ChEMBL document CHEMBL4002601, “A triple exon-skipping luciferase reporter assay identifies a new CLK inhibitor pharmacophore” (Bioorg Med Chem Lett, 2017).

The structures appear in SMILES notation. Active and inactive are the calls of the source. No cut-off for these calls is given here.

The target in data set [1] is T1, Dual specificity protein kinase CLK1 (Homo sapiens, UniProt P49759). The data set can be described thus: Inhibition of CLK mediated SF3B1 activation in human SK-MEL-2 cells assessed as MDM2-pre mRNA exon skipping after 4 hrs by luciferase reporter gene assay relative to control. It counts as cell-based. Background: A reporter such as luciferase makes a cellular process visible.
Target sequence in this assay (P49759 whole entry): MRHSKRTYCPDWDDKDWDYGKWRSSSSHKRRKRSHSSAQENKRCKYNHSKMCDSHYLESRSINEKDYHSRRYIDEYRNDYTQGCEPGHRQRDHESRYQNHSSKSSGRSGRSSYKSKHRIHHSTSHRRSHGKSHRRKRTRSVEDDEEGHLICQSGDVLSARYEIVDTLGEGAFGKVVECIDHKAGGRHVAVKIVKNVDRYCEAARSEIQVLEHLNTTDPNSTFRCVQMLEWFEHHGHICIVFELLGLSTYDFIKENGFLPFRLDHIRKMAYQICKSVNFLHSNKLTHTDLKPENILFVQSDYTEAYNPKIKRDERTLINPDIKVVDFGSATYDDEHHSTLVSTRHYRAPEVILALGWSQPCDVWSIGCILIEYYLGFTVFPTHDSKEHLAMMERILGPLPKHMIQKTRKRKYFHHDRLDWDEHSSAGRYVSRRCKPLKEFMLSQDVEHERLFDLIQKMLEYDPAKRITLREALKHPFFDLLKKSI

Data set [2] in a line: Solubility of the compound. The class given is physicochemical.
For data set [3], the target named is T1, Dual specificity protein kinase CLK1. The data set can be described thus: Inhibition of CLK mediated SF3B1 activation in human SK-MEL-2 cells assessed as MDM2-pre mRNA exon skipping at 10 uM after 4 hrs by luciferase reporter gene assay relative to control. The class given is cell-based. On the set-up: Activity: scale not given: the % may be the effect or the level left.
Target sequence in this assay (P49759 whole entry, looked up): as the sequence (P49759 whole entry) above

The target is the same in data set [4]. The data set can be described thus: Inhibition of CLK mediated SF3B1 activation in human HeLa cells assessed as MDM2-pre mRNA exon skipping by luciferase reporter gene assay. It counts as cell-based.
Target sequence in this assay (P49759 whole entry): as above
In data set [5] the target is CDK4/Cyclin D3 (Homo sapiens, UniProt P11802). Nature of the data set: (§1) Inhibition of human CDK4/cyclinD3 using Histone H1 as substrate in presence of [gamma-33P]ATP after 40 mins by scintillation counter method. It counts as protein-complex assay.
Data set [6] addresses T1, Dual specificity protein kinase CLK1. The data set can be described thus: Inhibition of human CLK1 using substrate ERMRPRKRQGSVRRRV in presence of [gamma-33P]ATP after 40 mins by scintillation counter method.
Target sequence in this assay (P49759 whole entry): as above
The target in data set [7] is Dual specificity protein kinase CLK4 (Homo sapiens, UniProt Q9HAZ1). The data set can be described thus: Inhibition of human CLK4 using YRRAAVPPSPSLSRHSSPHQS(p)EDEEE as substrate in presence of [gamma-33P]ATP after 40 mins by scintillation counter method.
For data set [8], the target named is Cyclin-dependent kinase 1/cyclin B1 (Homo sapiens, UniProt P06493). Nature of the data set: Inhibition of human CDK1/cyclinB using Histone H1 as substrate in presence of [gamma-33P]ATP after 40 mins by scintillation counter method. The class given is protein-complex assay.
For data set [9], the target named is CDK6/cyclin D3 (Homo sapiens, UniProt Q00534). The data set can be described thus: (§2) Inhibition of human CDK6/cyclinD3 using Histone H1 as substrate in presence of [gamma-33P]ATP after 40 mins by scintillation counter method. It counts as protein-complex assay.
Data set [10] deals with Dual specificity protein kinase CLK2 (Homo sapiens, UniProt P49760). The data set can be described thus: Inhibition of human CLK2 using YRRAAVPPSPSLSRHSSPHQS(p)EDEEE as substrate in presence of [gamma-33P]ATP after 40 mins by scintillation counter method.
Data set [11] concerns the target Dual specificity protein kinase CLK3 (Homo sapiens, UniProt P49761). Nature of the data set: Inhibition of human CLK3 using ERMRPRKRQGSVRRRV as substrate in presence of [gamma-33P]ATP after 40 mins by scintillation counter method.
Data set [12] deals with T1, Dual specificity protein kinase CLK1. The data set can be described thus: Inhibition of CLK mediated SF3B1 activation in human Rh-18 cells assessed as MDM2-pre mRNA exon skipping at 10 uM after 8 hrs by RT-PCR method. It counts as cell-based.
Target sequence in this assay (P49759 whole entry, looked up): as the sequence (P49759 whole entry) above
Data set [13] concerns the target CDK4/Cyclin D3 (Homo sapiens, UniProt P11802+P30281). The data set is described as §1. It counts as protein-complex assay.
Data set [14] deals with CDK6/cyclin D3 (Homo sapiens, UniProt P30281+Q00534). The data set is described as §2. The class given is protein-complex assay.
CDK6/cyclin D3 (Homo sapiens, UniProt P30281+Q00534), sequence (P30281 whole entry): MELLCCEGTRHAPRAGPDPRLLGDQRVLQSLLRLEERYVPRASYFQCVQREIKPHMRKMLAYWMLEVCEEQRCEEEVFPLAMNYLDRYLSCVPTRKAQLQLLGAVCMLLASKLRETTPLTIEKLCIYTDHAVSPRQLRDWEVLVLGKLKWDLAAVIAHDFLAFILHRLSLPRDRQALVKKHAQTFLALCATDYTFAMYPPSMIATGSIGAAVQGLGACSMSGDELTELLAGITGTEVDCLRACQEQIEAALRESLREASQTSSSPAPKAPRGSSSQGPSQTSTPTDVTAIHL
CDK6/cyclin D3 (Homo sapiens, UniProt P30281+Q00534), sequence (Q00534 whole entry): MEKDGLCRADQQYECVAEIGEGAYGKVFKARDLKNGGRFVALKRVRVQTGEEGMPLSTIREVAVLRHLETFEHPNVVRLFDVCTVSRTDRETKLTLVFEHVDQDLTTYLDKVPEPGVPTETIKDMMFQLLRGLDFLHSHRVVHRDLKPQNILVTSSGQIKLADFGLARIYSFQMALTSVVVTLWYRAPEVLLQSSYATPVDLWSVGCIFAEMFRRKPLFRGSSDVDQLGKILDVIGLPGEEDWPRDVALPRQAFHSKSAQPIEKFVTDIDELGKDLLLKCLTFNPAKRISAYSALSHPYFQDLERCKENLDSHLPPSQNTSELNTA

Dual specificity protein kinase CLK3, sequence (P49761 whole entry): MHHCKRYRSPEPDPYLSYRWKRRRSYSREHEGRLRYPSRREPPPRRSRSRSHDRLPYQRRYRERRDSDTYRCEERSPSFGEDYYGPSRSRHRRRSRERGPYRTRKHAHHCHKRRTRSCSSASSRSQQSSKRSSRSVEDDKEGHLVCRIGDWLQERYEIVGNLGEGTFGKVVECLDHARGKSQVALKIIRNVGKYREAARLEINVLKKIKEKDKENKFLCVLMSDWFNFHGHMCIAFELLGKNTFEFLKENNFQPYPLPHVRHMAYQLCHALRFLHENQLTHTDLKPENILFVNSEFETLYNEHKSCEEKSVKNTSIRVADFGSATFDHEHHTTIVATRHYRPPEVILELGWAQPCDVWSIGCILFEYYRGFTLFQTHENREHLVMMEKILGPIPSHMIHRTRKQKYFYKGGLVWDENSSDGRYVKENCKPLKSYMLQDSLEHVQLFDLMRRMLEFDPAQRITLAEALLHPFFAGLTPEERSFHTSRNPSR
Dual specificity protein kinase CLK2, sequence (P49760 whole entry): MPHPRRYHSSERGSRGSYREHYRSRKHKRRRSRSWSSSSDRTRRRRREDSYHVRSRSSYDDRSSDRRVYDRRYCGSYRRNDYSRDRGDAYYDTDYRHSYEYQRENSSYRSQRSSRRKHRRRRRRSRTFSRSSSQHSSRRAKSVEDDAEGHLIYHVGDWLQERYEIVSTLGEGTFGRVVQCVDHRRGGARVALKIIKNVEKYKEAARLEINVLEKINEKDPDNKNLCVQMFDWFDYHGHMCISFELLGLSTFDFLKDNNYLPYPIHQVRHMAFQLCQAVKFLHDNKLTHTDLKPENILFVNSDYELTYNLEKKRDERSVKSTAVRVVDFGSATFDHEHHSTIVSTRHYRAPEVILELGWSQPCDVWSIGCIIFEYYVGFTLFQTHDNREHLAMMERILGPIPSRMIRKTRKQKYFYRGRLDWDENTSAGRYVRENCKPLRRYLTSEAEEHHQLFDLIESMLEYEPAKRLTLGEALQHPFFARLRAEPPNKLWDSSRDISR
Dual specificity protein kinase CLK4, sequence (Q9HAZ1 whole entry): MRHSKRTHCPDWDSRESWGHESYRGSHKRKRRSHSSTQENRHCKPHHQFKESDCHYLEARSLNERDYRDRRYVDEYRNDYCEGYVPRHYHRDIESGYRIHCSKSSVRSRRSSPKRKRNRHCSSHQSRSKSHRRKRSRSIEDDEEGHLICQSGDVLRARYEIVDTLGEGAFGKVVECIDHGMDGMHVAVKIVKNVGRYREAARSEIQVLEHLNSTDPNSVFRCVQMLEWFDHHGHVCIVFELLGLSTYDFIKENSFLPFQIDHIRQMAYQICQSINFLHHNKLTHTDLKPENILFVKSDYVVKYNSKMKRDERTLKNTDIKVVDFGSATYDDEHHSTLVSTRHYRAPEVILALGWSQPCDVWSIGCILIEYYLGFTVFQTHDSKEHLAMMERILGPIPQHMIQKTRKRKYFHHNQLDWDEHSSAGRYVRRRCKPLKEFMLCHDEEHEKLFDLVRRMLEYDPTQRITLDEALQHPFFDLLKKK
CDK4/Cyclin D3 (Homo sapiens, UniProt P11802), sequence (P11802 whole entry): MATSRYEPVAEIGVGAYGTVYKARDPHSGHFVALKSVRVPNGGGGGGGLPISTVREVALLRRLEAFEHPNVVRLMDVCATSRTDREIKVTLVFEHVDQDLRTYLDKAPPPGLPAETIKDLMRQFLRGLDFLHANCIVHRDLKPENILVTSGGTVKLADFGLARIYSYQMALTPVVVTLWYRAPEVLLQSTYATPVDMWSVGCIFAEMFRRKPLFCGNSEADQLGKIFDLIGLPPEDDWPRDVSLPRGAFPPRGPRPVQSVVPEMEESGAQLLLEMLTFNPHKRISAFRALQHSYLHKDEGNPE
CDK4/Cyclin D3 (Homo sapiens, UniProt P11802), sequence (P30281 whole entry, further chain): as the sequence (P30281 whole entry) above
CDK6/cyclin D3 (Homo sapiens, UniProt Q00534), sequence (P30281 whole entry): as above
CDK6/cyclin D3 (Homo sapiens, UniProt Q00534), sequence (Q00534 whole entry): as the sequence (Q00534 whole entry) above
Cyclin-dependent kinase 1/cyclin B1, sequence (P06493 whole entry): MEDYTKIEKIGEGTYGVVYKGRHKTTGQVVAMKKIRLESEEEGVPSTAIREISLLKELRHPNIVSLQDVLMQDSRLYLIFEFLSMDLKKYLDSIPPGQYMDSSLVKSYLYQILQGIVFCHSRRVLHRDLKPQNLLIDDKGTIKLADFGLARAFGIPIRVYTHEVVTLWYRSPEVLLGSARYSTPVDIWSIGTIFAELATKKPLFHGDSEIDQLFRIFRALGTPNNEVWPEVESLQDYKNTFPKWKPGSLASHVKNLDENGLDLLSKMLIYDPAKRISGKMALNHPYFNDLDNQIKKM
Cyclin-dependent kinase 1/cyclin B1, sequence (P14635 whole entry, further chain): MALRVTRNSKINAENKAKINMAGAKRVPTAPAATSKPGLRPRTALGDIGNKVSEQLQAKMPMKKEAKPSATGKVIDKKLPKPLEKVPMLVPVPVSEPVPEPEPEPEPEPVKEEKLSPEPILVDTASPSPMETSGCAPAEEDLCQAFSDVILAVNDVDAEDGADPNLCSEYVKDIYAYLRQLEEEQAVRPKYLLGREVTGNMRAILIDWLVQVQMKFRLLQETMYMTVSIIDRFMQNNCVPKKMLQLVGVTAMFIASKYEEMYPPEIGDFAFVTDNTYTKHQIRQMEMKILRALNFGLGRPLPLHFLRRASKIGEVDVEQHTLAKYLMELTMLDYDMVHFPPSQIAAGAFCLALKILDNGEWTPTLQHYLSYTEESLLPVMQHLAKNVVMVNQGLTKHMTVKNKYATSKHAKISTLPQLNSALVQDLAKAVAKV
CDK4/Cyclin D3 (Homo sapiens, UniProt P11802+P30281), sequence (P11802 whole entry): as the sequence (P11802 whole entry) above
CDK4/Cyclin D3 (Homo sapiens, UniProt P11802+P30281), sequence (P30281 whole entry): as the sequence (P30281 whole entry) above

The term EC50 denotes the concentration that produces a half-maximal response. Consider `COCCNc1nc(Nc2cccc(Cl)c2)c2ncn(C(C)C)c2n1`, for which, in [1], the EC50 entry is recorded as “Not Active”. Besides, in [2], the solubility result is “Insoluble”.

Turning to `Clc1cccc(Nc2nnc(-c3ccccc3)c3ccccc23)c1`, the Activity in [3] amounted to 11%.

As for `O=C(O)COc1ccc(Cl)cc1Cl`, the Activity in data set [3] stood at 21%.

For `COc1ccc2c(C)nc(Nc3nc(C)c(C)c(=O)[nH]3)nc2c1`, the EC50 in data set [4] was found to be 20000 nM.

What is called IC50 is the concentration that gives 50% inhibition. As for `CC(C)n1cnc2c(Nc3cc(N)cc(Cl)c3)nc(N[C@@H]3CCCC[C@@H]3N)nc21` (racemic), the 50% inhibitory concentration (IC50) on CDK4/Cyclin D3 [5] is > 1000 nM; in data set [6], 18 nM; in data set [7] it was 54 nM; in data set [8] it was 973 nM; on CDK6/cyclin D3 [9], > 1000 nM; in data set [10], 16 nM. Further, in data set [11], the IC50 is > 1000 nM. Also, the EC50 in [1] (read-out: EC50) worked out at 6500 nM.

In the case of `CC(C)n1cnc2c(Nc3cc(N)cc(Cl)c3)nc(N[C@H]3CCCC[C@@H]3N)nc21`, the EC50 in data set [1] (read-out: EC50) is 23500 nM.

As to `CC(=O)Nc1cc(Cl)cc(Nc2nc(N[C@@H]3CCCC[C@@H]3N)nc3c2ncn3C(C)C)c1` (racemic) [listing 1 of 2 here], the IC50 on CDK4/Cyclin D3 [5] amounted to 930 nM; in [6], 19 nM; in data set [7], 64 nM; in [10], 13 nM. Besides, the EC50 in data set [1] (read-out: EC50) was determined as 8100 nM.

As for `CC(C)n1cnc2c(Nc3cc(N)cc(Cl)c3)nc(N[C@H]3CCCNC3)nc21`, the EC50 in data set [1] (read-out: EC50) was 12900 nM.

Consider `CC(/C=C/[C@@H]1C[C@]2(CO2)CC(C)(C)O1)=C\C[C@H]1CC[C@@H](NC(=O)/C=C\[C@H](C)OC(=O)N(C)C)CC1`, for which the inhibition entry in data set [3] is “Active”.

`CCn1cnc2c(Nc3cccc(Cl)c3)nc(N[C@@H]3CCCC[C@@H]3NC(C)=O)nc21` (racemic): the IC50 in data set [6] is > 1000 nM. For the same compound, the EC50 result in data set [1] is listed as “Not Active”.

Regarding `CC(C)n1cnc2c(Nc3cc(N)cc(Cl)c3)nc(N[C@H]3CCNC3)nc21`, the EC50 in data set [1] (read-out: EC50) was determined as 12000 nM.

In the case of `CCn1cnc2c(Nc3cccc(Cl)c3)nc(N[C@H]3CCCC[C@@H]3N)nc21`, the fold change (FC) in data set [3] is > 3. Besides, the EC50 in data set [1] (read-out: EC50) worked out at 22000 nM.

For `CC(C)n1cnc2c(Nc3cc(N)cc(Cl)c3)nc(N[C@H]3CCCC[C@H]3N)nc21`, the EC50 in [1] (read-out: EC50) was determined as 18700 nM.

On to `CC(=O)Nc1cc(Cl)cc(Nc2nc(N[C@@H]3CCCC[C@@H]3N)nc3c2ncn3C(C)C)c1`, for which, in data set [1] (read-out: EC50), the EC50 was determined as 7300 nM. Also, the IC50 (in [8]; at CDK6/cyclin D3 [9]) was > 1000 nM each time.

As to `CC(C)n1ccc2c(Nc3cccc(Cl)c3)nc(N[C@H]3CCCC[C@H]3N)nc21` (racemic), the inhibition result in data set [3] is “inactive”. Besides, the IC50 in data set [6] was > 1000 nM.

On to `CC(C)n1cnc2c(Nc3cccc(Cl)c3)nc(N[C@@H]3CCCC[C@H]3N)nc21`, for which the fold change (FC) in [3] is > 3. Also, the EC50 in [1] (read-out: EC50) was 4500 nM.

Regarding `CCn1cnc2c(Nc3cccc(Cl)c3)nc(N[C@@H]3CCCC[C@H]3N)nc21`, in data set [3], the fold change (FC) is > 3. The EC50 in [1] (read-out: EC50) stood at 7800 nM.

In the case of `CC1=Nc2ccc(Cl)cc2S(=O)(=O)N1`, the Activity in data set [3] is 11%.

For `CNC(=O)O[C@@H](C)/C=C\C(=O)N[C@H]1CC[C@@H](C/C=C(C)/C=C/[C@@H]2C[C@]3(CO3)CC(C)(C)O2)CC1`, the EC50 in data set [1] (read-out: EC50) was 800 nM.

Take `CC(C)n1cnc2c(Nc3cc(N)cc(Cl)c3)nc(N[C@@H]3CCCC[C@H]3N)nc21`: the EC50 in [1] (read-out: EC50) is 9700 nM.

In the case of `CC(=O)Nc1cc(Cl)cc(Nc2nc(N[C@H]3CCCC[C@H]3N)nc3c2ncn3C(C)C)c1`, in data set [1] (read-out: EC50), the EC50 came out at 17500 nM.

Turning to `COC(=O)c1c(/C(C#N)=C\N)c2ccc(Cl)c(Cl)c2n1C`, the inhibition entry in [3] is “Active”. Besides, in data set [1] (read-out: EC50), the EC50 came out at 8000 nM.

Turning to `CC(C)n1cnc2c(Nc3cc(N)cc(Cl)c3)nc(N[C@@H]3CCNC3)nc21`, the EC50 in [1] (read-out: EC50) was 26400 nM.

On to `CC(C)n1cnc2c(Nc3cc(N)cc(Cl)c3)nc(N[C@@H]3CCCNC3)nc21`, for which the EC50 in data set [1] (read-out: EC50) turned out to be 14000 nM.

For the compound `COc1ccc2c(C)nc(Nc3nc(C)c(C)c(O)n3)nc2c1`, the inhibition entry in [3] was “inactive”.

Turning to `CC(=O)Nc1cc(Cl)cc(Nc2nc(N[C@@H]3CCCC[C@@H]3N)nc3c2ncn3C(C)C)c1` (racemic) [listing 2 of 2 here], in data set [3], the fold change (FC) is > 3.

For `COc1ccc2c(c1)/C(=C/c1cnc[nH]1)C(=O)N2`, in [3], the Activity is 53%.

For `CC(C)[C@H](CO)Nc1nc(Nc2cc(N)cc(Cl)c2)c2ncn(C(C)C)c2n1` [AMINOPURVALANOL], the EC50 in data set [1] (read-out: EC50) was 12000 nM. For the same compound, the inhibition result in data set [12] is “Active”.

On to `CC(C)n1cnc2c(Nc3cc(N)cc(Cl)c3)nc(N[C@@H]3CCCC[C@@H]3N)nc21`, for which the IC50 at CDK4/Cyclin D3 [13] was > 1000 nM; in data set [8], 532 nM; on CDK6/cyclin D3 [14], > 1000 nM; in data set [11], > 1000 nM. Also, the EC50 in data set [1] (read-out: EC50) was 3000 nM.

Regarding `C#CCCCCCCCCCCC(=O)CC(O)COC(C)=O` (centres undefined), in [3], the Activity amounted to 14%.

As to `CC(C)n1cnc2c(Nc3cccc(Cl)c3)nc(N[C@H]3CCCC[C@H]3N)nc21`, the fold change (FC) in data set [3] is > 3. Moreover, the EC50 in [1] (read-out: EC50) is 12200 nM.

For `CCn1cnc2c(Nc3cccc(Cl)c3)nc(N[C@@H]3CCCC[C@@H]3N)nc21` (racemic), the fold change (FC) in data set [3] is > 3. Besides, the IC50 at CDK4/Cyclin D3 [5] was 573 nM; in data set [6], 148 nM; in [7], 104 nM; in [8] it was 382 nM; on CDK6/cyclin D3 [9] it was > 1000 nM; in data set [10], 111 nM. Also, the IC50 in data set [11] was > 1000 nM. Besides, in [1] (read-out: EC50), the EC50 is 4200 nM. For the same compound, the inhibition entry in data set [12] is “Active”.

On to `CCN1/C(=C/C(C)=O)Sc2ccc(Cl)cc21`, for which the inhibition result in data set [3] was “inactive”.

With `CC(=O)Oc1ccc(/C=C/c2cc(OC(C)=O)cc(OC(C)=O)c2)cc1`, the Activity in data set [3] came to 17%.
